According to patent US7432260B2, “Pyrimidine compounds” (Cyclacel Limted, priority 2002, dated 2008):

Experiments:
CDK1/cyclin B = CDK1/cyclin B (Homo sapiens, UniProt P06493); assay: Kinase assay CDK1/cyclin B; format: biochemical; conditions: Table 2; read-out: Kinase Inhibition IC50 CDK1 cyclin B
Method in brief: (§1)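 Recombinant kinase (2-4 μg) with polypeptide substrate in pH 7.4 MOPS/β-glycerophosphate buffer; started with 15 mM MgCl2 + 100 μM ATP plus [γ-32P]-ATP, incubated at 30° C. Stopped on ice, filtered, washed in orthophosphoric acid; incorporated 32P counted by scintillation.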

CDK2/cyclin A = CDK2/cyclin A (Homo sapiens, UniProt P24941); assay: Kinase assay CDK2/cyclin A; format: biochemical; conditions: Table 2; read-out: Kinase Inhibition IC50 CDK2 cyclin A
Method in brief: as §1

CDK4/cyclin D1 = CDK4/cyclin D1 (Homo sapiens, UniProt P11802); assay: Kinase assay CDK4/cyclin D1; format: biochemical; conditions: Table 2; read-out: Kinase Inhibition IC50 CDK4 cyclin D1
Chain of CDK4/cyclin D1 (P11802 whole entry): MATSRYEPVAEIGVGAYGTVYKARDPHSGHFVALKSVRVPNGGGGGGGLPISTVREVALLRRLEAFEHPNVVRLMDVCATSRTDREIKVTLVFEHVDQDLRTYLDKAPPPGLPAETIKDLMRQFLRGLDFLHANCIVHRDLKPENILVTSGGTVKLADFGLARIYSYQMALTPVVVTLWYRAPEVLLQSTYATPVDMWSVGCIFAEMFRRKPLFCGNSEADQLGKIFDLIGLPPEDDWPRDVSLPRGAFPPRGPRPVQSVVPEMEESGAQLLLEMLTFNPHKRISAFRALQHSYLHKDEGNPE
Chain of CDK4/cyclin D1 (P24385 whole entry partner): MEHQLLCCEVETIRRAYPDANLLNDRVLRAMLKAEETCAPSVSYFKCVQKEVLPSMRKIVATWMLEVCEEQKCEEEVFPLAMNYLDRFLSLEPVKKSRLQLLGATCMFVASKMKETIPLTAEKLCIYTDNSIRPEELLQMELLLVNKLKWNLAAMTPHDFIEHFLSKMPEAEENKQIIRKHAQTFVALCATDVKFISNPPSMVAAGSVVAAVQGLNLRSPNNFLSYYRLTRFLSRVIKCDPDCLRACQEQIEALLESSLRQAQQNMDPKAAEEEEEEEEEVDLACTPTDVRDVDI
Method in brief: as §1

CDK7/cyclin H = CDK7/cyclin H (Homo sapiens, UniProt P50613); assay: CDK7 assay; format: biochemical; conditions: Table 2; read-out: Kinase Inhibition IC50 CDK7 cyclin H
Chain of CDK7/cyclin H (P50613 whole entry): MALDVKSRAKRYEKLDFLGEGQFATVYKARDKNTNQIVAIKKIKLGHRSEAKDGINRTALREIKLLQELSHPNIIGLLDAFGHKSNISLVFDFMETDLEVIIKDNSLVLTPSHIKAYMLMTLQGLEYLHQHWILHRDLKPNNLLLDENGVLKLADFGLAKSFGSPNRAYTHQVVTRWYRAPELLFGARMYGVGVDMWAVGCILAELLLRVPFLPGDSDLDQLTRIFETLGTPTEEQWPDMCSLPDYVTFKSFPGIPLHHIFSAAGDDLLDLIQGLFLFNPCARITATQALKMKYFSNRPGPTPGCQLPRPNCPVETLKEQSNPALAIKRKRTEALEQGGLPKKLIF
Method in brief: (§2)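 Radiometric filter-binding format: test compound at varying amounts incubated with CTD peptide (biotinyl-Ahx-(YSPTSPS)4-NH2) and either CDK9/cyclin T1 or CDK7/cyclin H, using 100 μM ATP spiked with 32P, 45 min, 30 °C, pH 7.2. Reactions were stopped on ice, bound to avidin, filtered on P81 plates and scintillation-counted.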

CDK9/cyclin T1 = CDK9/cyclin T1 (Homo sapiens, UniProt P50750); assay: CDK9 assay; format: biochemical; conditions: Table 2; read-out: Kinase Inhibition IC50 CDK9 cyclin T1
Chain of CDK9/cyclin T1 (P50750 whole entry): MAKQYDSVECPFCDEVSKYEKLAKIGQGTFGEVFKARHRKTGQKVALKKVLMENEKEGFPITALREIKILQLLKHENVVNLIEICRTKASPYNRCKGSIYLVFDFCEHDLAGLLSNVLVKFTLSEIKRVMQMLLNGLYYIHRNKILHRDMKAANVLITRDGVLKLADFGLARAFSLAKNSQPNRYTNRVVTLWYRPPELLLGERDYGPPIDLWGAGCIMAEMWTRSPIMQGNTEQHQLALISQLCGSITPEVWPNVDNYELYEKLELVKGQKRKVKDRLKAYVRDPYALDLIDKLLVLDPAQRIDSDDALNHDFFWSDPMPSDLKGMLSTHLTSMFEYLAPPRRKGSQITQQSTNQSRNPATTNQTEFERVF
Chain of CDK9/cyclin T1 (O60563 whole entry partner): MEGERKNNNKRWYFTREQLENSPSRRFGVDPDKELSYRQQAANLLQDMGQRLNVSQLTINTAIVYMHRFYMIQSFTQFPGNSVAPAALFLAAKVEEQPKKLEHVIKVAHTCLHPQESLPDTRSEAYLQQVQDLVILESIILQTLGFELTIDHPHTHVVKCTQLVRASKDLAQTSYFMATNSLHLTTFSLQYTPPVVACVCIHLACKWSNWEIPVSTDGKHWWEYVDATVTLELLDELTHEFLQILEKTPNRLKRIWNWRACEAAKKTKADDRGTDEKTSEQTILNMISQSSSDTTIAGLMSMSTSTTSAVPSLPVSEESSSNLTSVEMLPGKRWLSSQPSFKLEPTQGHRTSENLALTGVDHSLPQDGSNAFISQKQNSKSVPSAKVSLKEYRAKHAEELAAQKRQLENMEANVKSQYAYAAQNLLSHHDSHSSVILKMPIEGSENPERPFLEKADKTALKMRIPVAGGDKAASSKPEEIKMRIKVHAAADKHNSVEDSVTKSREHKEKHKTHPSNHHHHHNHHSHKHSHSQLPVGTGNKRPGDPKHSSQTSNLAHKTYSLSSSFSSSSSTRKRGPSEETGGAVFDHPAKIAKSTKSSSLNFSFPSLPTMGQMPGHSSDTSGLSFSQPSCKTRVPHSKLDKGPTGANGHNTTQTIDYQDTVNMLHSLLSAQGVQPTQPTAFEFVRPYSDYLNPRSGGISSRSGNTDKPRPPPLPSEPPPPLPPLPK
Method in brief: as §2

GSK-3β = GSK-3β (Homo sapiens, UniProt P49841); assay: Kinase assay GSK-3β; format: biochemical; conditions: Table 2; read-out: Kinase Inhibition IC50 GSK-3β
Chain of GSK-3β (P49841 whole entry): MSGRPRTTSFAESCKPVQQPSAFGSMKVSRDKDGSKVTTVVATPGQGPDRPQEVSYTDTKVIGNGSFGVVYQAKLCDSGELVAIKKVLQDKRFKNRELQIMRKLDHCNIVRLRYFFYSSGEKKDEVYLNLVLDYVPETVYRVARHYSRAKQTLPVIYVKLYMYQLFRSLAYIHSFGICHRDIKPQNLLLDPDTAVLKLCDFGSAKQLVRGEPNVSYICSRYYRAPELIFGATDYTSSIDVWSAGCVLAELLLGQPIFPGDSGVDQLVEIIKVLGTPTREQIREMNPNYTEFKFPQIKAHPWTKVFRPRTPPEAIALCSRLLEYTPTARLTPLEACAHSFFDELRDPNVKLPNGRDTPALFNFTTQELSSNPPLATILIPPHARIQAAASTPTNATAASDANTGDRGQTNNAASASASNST
Method in brief: as §1

PLK-1 = PLK-1 (Homo sapiens, UniProt P53350); assay: Kinase assay PLK-1; format: biochemical; conditions: Table 2; read-out: Kinase Inhibition IC50 PLK-1
Chain of PLK-1 (P53350 whole entry): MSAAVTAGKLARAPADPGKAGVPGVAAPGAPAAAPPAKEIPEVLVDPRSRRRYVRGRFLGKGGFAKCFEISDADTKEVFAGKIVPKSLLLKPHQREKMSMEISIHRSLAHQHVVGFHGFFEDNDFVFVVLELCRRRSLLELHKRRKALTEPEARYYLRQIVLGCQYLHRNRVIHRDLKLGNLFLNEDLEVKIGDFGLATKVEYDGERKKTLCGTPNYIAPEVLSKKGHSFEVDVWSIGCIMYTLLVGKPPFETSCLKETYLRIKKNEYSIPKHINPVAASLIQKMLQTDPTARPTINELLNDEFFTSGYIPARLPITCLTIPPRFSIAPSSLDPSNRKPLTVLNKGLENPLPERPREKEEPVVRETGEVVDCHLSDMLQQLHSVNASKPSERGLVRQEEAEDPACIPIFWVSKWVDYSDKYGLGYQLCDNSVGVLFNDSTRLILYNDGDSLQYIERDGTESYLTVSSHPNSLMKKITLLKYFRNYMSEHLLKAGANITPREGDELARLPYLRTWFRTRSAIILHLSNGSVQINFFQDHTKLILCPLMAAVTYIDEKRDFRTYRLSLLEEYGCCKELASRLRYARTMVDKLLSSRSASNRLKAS
Protocol: Kinase assays. […] This was achieved by measurement of incorporation of radioactive phosphate from ATP into appropriate polypeptide substrates. Recombinant protein kinases and kinase complexes were produced or obtained commercially. Assays were performed using 96-well plates and appropriate assay buffers (typically 25 mM β-glycerophosphate, 20 mM MOPS, 5 mM EGTA, 1 mM DTT, 1 mM […], pH 7.4), into which were added 2-4 μg of active enzyme with appropriate substrates. The reactions were initiated by addition of Mg/ATP mix (15 mM MgCl2+100 μM ATP with 30-50 kBq per well of [γ-^32P]-ATP) and mixtures incubated as required at 30° C. Reactions were stopped on ice, followed by filtration through p81 filterplates or GF/C filterplates (Whatman Polyfiltronics, Kent, UK). After washing 3 times with 75 mM aq orthophosphoric acid, plates were dried, scintillant added and incorporated radioactivity measured in a scintillation counter (TopCount, Packard Instruments, Pangbourne, Berks, UK). Compounds for kinase assay were made-up as 10 mM stocks in DMSO and diluted into 10% DMSO inrassay buffer.

A549 = assay: 72-h MTT cytotoxicity assay A549; format: cell-based; conditions: Homo sapiens, A549, 72 h, Table 4
Method in brief: (§3)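 Read-out is MTT formazan dissolved in DMSO after a 4 h dark incubation with dye at 37° C. Before that, cells seeded according to doubling time received a 1/3 dilution series of compound in triplicate for 72 h at 37° C.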

HT29 = assay: 72-h MTT cytotoxicity assay HT29; format: cell-based; conditions: Homo sapiens, HT-29, 72 h, Table 4
Method in brief: as §3

Saos-2 = assay: 72-h MTT cytotoxicity assay Saos-2; format: cell-based; conditions: Homo sapiens, SAOS-2, 72 h, Table 4
Method in brief: as §3

CDK2/cyclin E = CDK2/cyclin E (Homo sapiens, UniProt P24941); assay: Kinase assay CDK2/cyclin E; format: biochemical; conditions: Table 2; read-out: Kinase Inhibition IC50 CDK2 cyclin E
Method in brief: as §1

Chain of CDK1/cyclin B (P06493 whole entry): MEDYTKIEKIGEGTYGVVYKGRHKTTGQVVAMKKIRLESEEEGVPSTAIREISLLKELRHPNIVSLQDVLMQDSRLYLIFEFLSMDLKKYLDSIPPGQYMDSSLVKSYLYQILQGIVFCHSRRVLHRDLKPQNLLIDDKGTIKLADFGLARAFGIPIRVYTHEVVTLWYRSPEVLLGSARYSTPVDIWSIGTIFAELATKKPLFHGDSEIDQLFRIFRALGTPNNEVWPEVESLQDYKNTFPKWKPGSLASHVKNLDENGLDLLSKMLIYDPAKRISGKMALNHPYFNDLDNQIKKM
Chain of CDK1/cyclin B (P14635 whole entry partner): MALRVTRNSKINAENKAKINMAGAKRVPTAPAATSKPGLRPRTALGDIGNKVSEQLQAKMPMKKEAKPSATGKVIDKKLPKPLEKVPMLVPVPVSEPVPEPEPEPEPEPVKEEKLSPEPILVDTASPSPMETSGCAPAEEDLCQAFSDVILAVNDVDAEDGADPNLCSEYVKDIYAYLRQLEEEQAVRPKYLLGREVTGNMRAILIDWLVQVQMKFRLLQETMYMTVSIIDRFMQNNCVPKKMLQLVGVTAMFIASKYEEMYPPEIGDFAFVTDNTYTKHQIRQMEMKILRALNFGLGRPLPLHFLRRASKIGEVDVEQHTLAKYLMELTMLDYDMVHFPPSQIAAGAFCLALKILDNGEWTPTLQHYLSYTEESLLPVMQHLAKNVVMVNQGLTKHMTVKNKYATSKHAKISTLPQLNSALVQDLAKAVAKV

Structure (SMILES) | IC50 (CDK1/cyclin B) | IC50 (CDK2/cyclin A) | IC50 (CDK4/cyclin D1) | IC50 (CDK7/cyclin H) | IC50 (CDK9/cyclin T1) | IC50 (GSK-3β) | IC50 (PLK-1) | IC50 (A549) | IC50 (HT29) | IC50 (Saos-2) | melting point | IC50 (CDK2/cyclin E)
CNc1nc(C)c(-c2ccnc(Nc3cccc(CNC(C)=O)c3)n2)s1 [Compound 63, N-{3-[4-(4-Methyl-2-methylamino-thiazol-5-yl)-pyrimidin-2-ylamino]-benzyl}-acetamide] | 48000 nM | 12000 nM | 7700 nM | 20000 nM | 2700 nM | 8800 nM | 46000 nM | 980 nM | 1400 nM | 1200 nM | 253 to 255 °C | 
CCNc1nc(C)c(-c2ccnc(Nc3cccc(CN)c3)n2)s1 [Compound 65, (3-Aminomethyl-phenyl)-[4-(2-ethylamino-4-methyl-thiazol-5-yl)-pyrimidin-2-yl]-amine] |  |  | 110 nM |  |  |  | > 100000 nM | 3200 nM | 4800 nM | 650 nM | 290 to 292 °C | 330 nM
CNc1nc(C)c(-c2ccnc(Nc3ccc(CCO)cc3)n2)s1 [Compound 59, 2-{4-[4-(4-Methyl-2-methylamino-thiazol-5-yl)-pyrimidin-2-ylamino]-phenyl}-ethanol] | 710 nM | 110 nM | 86 nM | 2600 nM | 470 nM | 2200 nM |  | 2400 nM | 1700 nM | 1900 nM | 216 to 218 °C | 140 nM
Cc1nc(N2CCOCC2)sc1-c1ccnc(Nc2ccc(N3CCOCC3)cc2)n1 [Compound 56, [4-(4-Methyl-2-morpholin-4-yl-thiazol-5-yl)-pyrimidin-2-yl]-(4-morpholin-4-yl-phenyl)-amine] | 18000 nM | 68000 nM | 22 nM | 850 nM | 17000 nM | > 100000 nM |  | 4400 nM | 2900 nM | 5000 nM | 229 to 231 °C | 600 nM
CNc1nc(C)c(-c2ccnc(Nc3cccc(CN)c3)n2)s1 [Compound 67, (3-Aminomethyl-phenyl)-[4-(4-methyl-2-methylamino-thiazol-5-yl)-pyrimidin-2-yl]-amine] |  |  | 240 nM |  |  |  | > 100000 nM | 14000 nM | 14000 nM | 1100 nM | 287 to 289 °C | 420 nM
